Test results published in patent US5872280A, “Leukotriene antagonistic benzoic acid derivatives” (Bayer Aktiengesellschaft, priority 1995, dated 1999).

Assays:
[1] = target: T1, ^3 H-LTD4 binding to guinea-pig lung membranes (Cavia porcellus, UniProt Q2NNR5); assay: inhibition of ^3 H-LTD4 binding to guinea-pig lung membranes; details: for Ki: read-out: pKi values for the inhibition of ^3 H-LTD4 binding to guinea-pig lung membranes (converted)
T1 construct: from tissue; host or cells: guinea-pig lung membranes
T1 sequence (Q2NNR5 1-340): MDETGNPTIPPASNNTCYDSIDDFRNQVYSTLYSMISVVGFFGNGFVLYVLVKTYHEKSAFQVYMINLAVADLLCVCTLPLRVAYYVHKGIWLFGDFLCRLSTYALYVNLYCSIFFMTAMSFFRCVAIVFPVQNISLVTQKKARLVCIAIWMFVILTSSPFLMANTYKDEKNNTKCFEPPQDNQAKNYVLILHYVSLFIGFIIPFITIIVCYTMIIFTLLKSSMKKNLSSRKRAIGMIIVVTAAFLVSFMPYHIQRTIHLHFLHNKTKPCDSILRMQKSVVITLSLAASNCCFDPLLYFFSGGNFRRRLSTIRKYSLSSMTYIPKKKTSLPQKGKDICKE
From the text: (§1) The representative preparations used to evaluate these compounds were the inhibition of ^3 H-LTD4 binding to guinea-pig lung membranes, as described in EP 494621, and the inhibition of both LTD4 -induced and LTC4 -induced contractions of guinea-pig tracheae as described by Tudhope et al., Eur. J. Pharmacol (1994) 264, 317-323.

[2] = target: T2, LTD4 -induced contractions of guinea-pig trachea (Cavia porcellus, UniProt Q2NNR5); assay: inhibition of LTD4-induced contractions of guinea-pig trachea; type: cell-based; details: for Kb: read-out: pKB values for the inhibition of LTD4 -induced contractions of guinea-pig trachea (converted)
T2 construct: contractions of guinea-pig tracheae; from tissue; host or cells: guinea-pig trachea
T2 sequence (Q2NNR5 1-340): T1 sequence (Q2NNR5 1-340)
From the text: as §1

[3] = test system: both receptor types; details: Tudhope et al., Eur. J. Pharmacol. (1994) 264, 317-323; cited from earlier work
[4] = target: T3, LTC4 -induced contractions of guinea-pig trachea (Cavia porcellus, UniProt H0VW05); assay: inhibition of LTC4-induced contractions of guinea-pig trachea; type: cell-based; details: read-out: pKB values for the inhibition of LTC4 -induced contractions of guinea-pig trachea (converted)
T3 construct: contractions of guinea-pig tracheae; from tissue; host or cells: guinea-pig trachea
T3 sequence (H0VW05 1-317): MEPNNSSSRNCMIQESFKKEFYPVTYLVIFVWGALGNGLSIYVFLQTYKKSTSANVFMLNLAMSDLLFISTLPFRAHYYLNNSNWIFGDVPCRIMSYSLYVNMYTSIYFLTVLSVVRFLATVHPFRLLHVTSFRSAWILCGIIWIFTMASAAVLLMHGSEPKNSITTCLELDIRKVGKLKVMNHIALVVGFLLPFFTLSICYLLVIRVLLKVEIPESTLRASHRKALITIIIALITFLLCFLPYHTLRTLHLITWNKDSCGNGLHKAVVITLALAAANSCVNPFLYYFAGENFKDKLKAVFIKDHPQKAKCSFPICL
From the text: as §1

SMILES | Ki [1] [nM] | Kb [2] [nM] | also measured
O=C(O)CCCCCOc1cc(C(=O)O)ccc1NC(=O)CCc1ccc(OCCCCOc2ccccc2)cc1 [Example 18] | 631 | 79.4 | 
CCCCC/C=C\C\C=C/C=C/C=C/[C@@H](Sc1ccc(C(=O)O)cc1)[C@@H](O)CCCC(=O)O [Compound A] |  |  | activity at both receptor types [3]: comparable activity at both receptor types
CS(=O)(=O)Nc1ccc(SCCc2ccc(OCCCCOc3ccccc3)cc2)c(C(=O)NCCC(=O)O)c1 [Example 34, 5-aza-5-(5-methylsulfonylamino]-2-(3-[4-{4-phenoxybutoxy}phenyl]-1-thiapropyl)phenyl-4-oxopentanoic acid] |  |  | pKi values for the inhibition of ^3 H-LTD4 binding to guinea-pig lung membranes [1]: 5.7; pKB values for the inhibition of LTD4 -induced contractions of guinea-pig trachea [2]: 5.6
O=C(O)CCC(=O)Nc1cc(C(=O)O)ccc1OCCCc1ccc(OCCCCOc2ccccc2)cc1 [Example 13] | 1000 | 126 | 
O=C(O)c1ccc(NC(=O)c2cc(C(=O)O)ccc2OCCCc2ccc(OCCCCOc3ccccc3)cc2)cc1 [Example 10] |  | 316 | Kb [4]: 126 nM
O=C(CCCc1ccc(OCCCCOc2ccccc2)cc1)Nc1ccc(C(=O)O)cc1C(=O)O [Example 24, 3-carboxy-4-([4-{4-phenoxybutoxy}phenyl]-1-oxobutyl)aminobenzoic acid] | 501 | 50.1 | 
O=C(O)COc1cc(C(=O)O)ccc1NC(=O)CCc1ccc(OCCCCOc2ccccc2)cc1 [Example 16] | 50.1 | 50.1 | 
O=C(O)CCCC(=O)Nc1cc(C(=O)O)ccc1OCCc1ccc(OCCCCOc2ccccc2)cc1 [Example 15] |  |  | pKi values for the inhibition of ^3 H-LTD4 binding to guinea-pig lung membranes [1]: 5.3; pKB values for the inhibition of LTD4 -induced contractions of guinea-pig trachea [2]: 6.4
CS(=O)(=O)Nc1ccc(OCCCc2ccc(OCCCCOc3ccccc3)cc2)c(C(=O)NCCC(=O)O)c1 [Example 31, 4-aza-5-(5-[methylsulfonylamino]-2-(3-[4-{4-phenoxybutoxy}phenyl]-propoxy)phenyl)-5-oxopentanoic acid] | 316 | 3980 | 
O=C(O)CCCCNC(=O)c1cc(C(=O)O)ccc1OCCCc1ccc(OCCCCOc2ccccc2)cc1 [Example 7] |  |  | pKi values for the inhibition of ^3 H-LTD4 binding to guinea-pig lung membranes [1]: 5.7; pKB values for the inhibition of LTD4 -induced contractions of guinea-pig trachea [2]: 6.6
O=C(O)CCCOc1cc(C(=O)O)ccc1NC(=O)CCc1ccc(OCCCCOc2ccccc2)cc1 [Example 17] | 398 | 251 | 
O=C(O)CNC(=O)c1cc(C(=O)O)ccc1OCCCc1ccc(OCCCCOc2ccccc2)cc1 [Example 5] | 398 | 79.4 | Kb [4]: 1260 nM
O=C(O)c1cccc(NC(=O)c2cc(C(=O)O)ccc2OCCCc2ccc(OCCCCOc3ccccc3)cc2)c1 [Example 8, N-(3-carboxyphenyl)-2-[3-{4-phenoxybutoxy}phenylpropoxy]-5-carboxybenzamide] |  | 631 | 
O=C(O)CCCC(=O)Nc1cc(C(=O)O)ccc1SCCc1ccc(OCCCCOc2ccccc2)cc1 [Example 33] |  |  | pKB values for the inhibition of LTD4 -induced contractions of guinea-pig trachea [2]: 6.6
O=C(Cc1ccc(OCCCCOc2ccccc2)cc1)Nc1ccc(C(=O)O)cc1C(=O)O [Example 26] |  | 1260 | 
CS(=O)(=O)Nc1ccc(OCCCc2ccc(OCCCCOc3ccccc3)cc2)c(C(=O)O)c1 [Example 29, 2-(3-[4-{4-phenoxybutoxy}phenyl]propoxy)-5-(methylsulfonylamino)benzoic acid] | 2000 | 2000 | 
O=C(O)CCCC(=O)Nc1cc(C(=O)O)ccc1OCCCc1ccc(OCCCCOc2ccccc2)cc1 [Example 11] | 1580 | 251 | Kb [4]: 1000 nM
O=C(O)CCC(=O)Nc1cc(C(=O)O)ccc1SCCc1ccc(OCCCCOc2ccccc2)cc1 [Example 32, 5-aza-5-(5-carboxy-2-(3-[4-{4-phenoxybutoxy}phenyl]-1-thiapropyl) -phenyl)-4-oxopentanoic acid] |  | 316 | 
O=C(CCc1ccc(OCCCCOc2ccccc2)cc1)Nc1ccc(C(=O)O)cc1C(=O)O [Example 22] | 251 | 50.1 | 
O=C(O)CCCCC(=O)Nc1cc(C(=O)O)ccc1OCCCc1ccc(OCCCCOc2ccccc2)cc1 [Example 12] | 1000 | 251 | Kb [4]: 501 nM
O=C(CCc1ccc(OCCCCOc2ccccc2)cc1)Nc1cc(C(=O)O)cc(C(=O)O)c1 [Example 23] | 3160 | 1260 | 
O=C(O)CCCC(=O)c1cc(C(=O)O)ccc1NC(=O)CCc1ccc(OCCCCOc2ccccc2)cc1 [Example 21] |  | 31.6 | 
O=C(O)CCCNC(=O)c1cc(C(=O)O)ccc1OCCCc1cccc(OCCCCOc2ccccc2)c1 [Example 36, 5-aza-6-(5-carboxy-2-(3-[3-{4-phenoxybutoxy}phenyl]propoxy)phenyl)-6-oxohexanoic acid] | 25100 |  | 
O=C(O)CCNC(=O)c1cc(C(=O)O)ccc1OCCCc1ccc(OCCCCOc2ccccc2)cc1 [Example 6] | 251 | 79.4 | Kb [4]: 79.4 nM
O=C(O)CCCNC(=O)c1cc(C(=O)O)ccc1OCCCc1ccc(OCCCCOc2ccccc2)cc1 [Example 4] | 794 | 126 | Kb [4]: 63.1 nM
O=C(O)CCCSc1cc(C(=O)O)ccc1NC(=O)CCc1ccc(OCCCCOc2ccccc2)cc1 [Example 20] |  | 316 | 
O=C(CCCc1ccc(OCCCCOc2ccccc2)cc1)Nc1cc(C(=O)O)cc(C(=O)O)c1 [Example 25, 3-carboxy-5-([4-{4-phenoxybutoxy}phenyl]-1-oxobutyl)aminobenzoic acid] | 1580 | 1580 | 
O=C(O)CC(=O)Nc1cc(C(=O)O)ccc1OCCCc1ccc(OCCCCOc2ccccc2)cc1 [Example 14] | 316 | 251 | 
O=C(O)c1cc(NS(=O)(=O)c2ccccc2)ccc1OCCCc1ccc(OCCCCOc2ccccc2)cc1 [Example 30, 2-(3-[4-{4-phenoxybutoxy}phenyl]propoxy)-5-(phenylsulfonylamino)benzoic acid] | 5010 | 20000 | 
